Measurements from US20110144125A1, “Anti-Arrhythmia Agents, Methods of Their Use, Methods of Their Identification and Kits Therefore” (THE UAB RESEARCH FOUNDATION, priority 2008, published 2011).
Structures can show the parent of a compound that is named as a salt.

Columns and labels:
[1] = tested on: rat left atrial appendage; test: 2-APB-induced spontaneous mechanical activity (SMA/SMEs) in isolated superfused rat left atria / left atrial appendage; conditions: 0.1 Hz paced, 15 μM 2-APB, titration after appearance of SMA
Protocol: (§1) Left atria were isolated from male Sprague-Dawley rats (325 to 400 g) under IP pentobarbital anesthesia (0.1 g/kg). Isolated left atria were superfused at 30° C. in Krebs-Henseleit (KH) buffer of the following mM composition: NaCl, 118; NaHCO3, 27; KCl, 4.8; MgSO4, 1.2; KH2PO4, 1.0; CaCl2, 1.8; and glucose, 11.1. Nearly isometric left atrial forces of contraction were measured as described.
Isolated superfused left atria were paced at 3 Hz. 2-APB was added to atrial superfusates from 0.015 or 0.15M DMSO stock solutions to achieve concentrations of 0, 2, 7.5, 15, or 22 μM (n=5 to 10 atria per concentration). Changes in atrial mechanical force were recorded during a subsequent 15 min superfusion.
Two groups of 5 to 6, 3 Hz paced atria were superfused in KH and exposed to 0 or 15 μM 2-APB for 10 min. The pacing stimulus was interrupted for 5 min and the number of spontaneous mechanical events (SMEs), defined as increases in mechanical force occurring in the absence of pacing, were measured as was the postrest potentiation response (PRP).
To determine whether diastolic interval affected the interaction between 2-APB and left atria, atrial pacing was decreased to 0.1 Hz, and 0, 7.5, or 22 μM 2-APB was added to the superfusate (n=6-8 per group). Superfusions continued for 15 min, and changes in atrial mechanical function were observed.
To establish whether SMA was reversible, atria (n=7) were paced at 0.1 Hz, exposed to 15 μM 2-APB for 10 min, and washed with KH. The effect of removing 2-APB on atrial mechanical function was recorded.
To test whether an anion transport inhibitor affected SMA, atria (n=7) were paced at 0.1 Hz in KH and exposed to 15 μM 2-APB. Following the appearance of SMA, they were titrated with 100 to 400 μM DIDS for 3 to 5 min at each concentration. Whether SMA occurred at the end of each titration period was recorded.
(§2) Left atria (n=10 per group) were paced at 0.1 Hz and treated with (i) 20 μM 2-APB for 10 min, (ii) with 30 nM isoproterenol for 5 min followed by 20 μM 2-APB for 10 min, and (iii) with 3 μM forskolin for 5 min followed by 20 μM 2-APB for 10 min.
The appendages then were titrated with increasing concentrations of 2-APB, and SMA was measured and recorded.
(§3) To determine the anti-arrhythmic activity of gossypol, isolated rat left atrial appendage and right ventricular muscle strips were used as model systems, as described above. Heart muscle was exposed to 20 μM 2-APB for 10 min to induce SMA, and rates of SMA were recorded as a percentage of initial SMA. The muscles then were titrated with up to 5 increasing concentrations of gossypol. Rates of SMA were recorded ˜10 min after the addition of concentration of the polyphenol.
To determine whether EGCG can prevent arrhythmia, rat left atrial appendages (n=9) were exposed to 20 μM 2-APB and rates of SMA were recorded. Groups of muscles (n=6 per) were pre-treated with 30 μM EGCG for 10 min following which they were exposed to 2-APB. Rates of SMA were recorded 10 min later.
as §3, with “whether EGCG is effective to reverse arrhythmia,” for “the anti-arrhythmic activity of gossypol,”, “Rat left atrial appendages were” for “Heart muscle was”, “left atrial appendages” for “muscles”, “the following polyphenols: EGCG, gossypol, resveratrol, and quercetin.” for “gossypol.”
To determine whether EGC can prevent arrhythmia, left atrial appendages (n=9) were exposed to 20 μM 2-APB and rates of SMA were recorded. Groups of appendages (n=6 per) were pre-treated with 30 μM EGC for 10 min following which they were exposed to 2-APB.

rat left atria [2] = test: Left atrial force of contraction / post-rest potentiation maximum force
Protocol: as §1
The initial potentiated beat following prolonged rest (i.e., the PRP maximum force of contraction) reflects activator calcium available for SR release. The PRP response was used to obtain an indirect measure of left atrial SR calcium under our conditions.
Left atria (n=6) were superfused in KH, paced at 0.1 Hz, and subjected to PRP. Superfusion proceeded for another 35 min, and a second PRP was performed. These 2 forces were compared to assure the mechanical stability of our preparations.
One group (n=8) was superfused in KH, paced at 0.1 Hz, and their maximum force of contraction was measured. These atria were washed with KH containing 82 mM sodium, and a second PRP was performed 23 min later.
A second group (n=8) was paced at 0.1 Hz in KH and subjected to PRP. They were exposed to 22 μM 2-APB and, after the appearance of SMA, were washed with KH containing 22 μM 2-APB and 82 mM sodium. Superfusion continued for 23 min and a second PRP was performed.
Control 0.1 Hz paced atria (n=8) were subjected to PRP and exposed to 400 μM DIDS, and a second PRP was performed 23 min later.
A group of atria (n=8) were paced at 0.1 Hz in KH and subjected to PRP. They were exposed to 22 μM 2-APB, 400 μM DIDS was added to the superfusate after the appearance of SMA, and a second PRP was performed 23 min later.
(§4) Left atria (n=8 per group) were paced at 3 Hz and (i) titrated with 0 to 30 nM isoproterenol (Ahlquist, 1970) or (ii) exposed to 3 μM forskolin (Laurenza et al., 1980). Left atrial force and frequency of contraction, the time to peak tension and relaxation times were recorded after a 3-5 min exposure to forskolin or to any concentration of isoproterenol. The 3 Hz pacing stimulus was interrupted at the end of these protocols to measure SMEs.
(§5) Left atria (n=6 per group) were paced at 3 Hz, titrated with 0 to 300 nM (−)BayK 8644 ([…]-1,4-Dihydro-2,6-dimethyl-5-nitro-4-[2-(trifluormethyl)phenyl]-3-pyridinecarboxylic acid methyl ester; Franckowiak et al. 1985) or FPL-64176 ((2,5-Dimethyl-4-[2-(phenylmethyl)benzoyl]-111-pyrrole-3-carboxylic acid methyl ester; Zheng et al., 1991) and their mechanical function and rates of SMA were recorded after a 5 min exposure to any concentration of slow calcium channel activator.
(§6) To test whether ryanodine receptor calcium leak produces SMA, left atria (n=6 per group) were paced at 0.1 Hz, treated with 0 or 300 nM BayK 8644 for 5 min, and then exposed to 600 nM ryanodine (Sutko et al., 1997). Atrial mechanical function and rates of SMA were recorded 20 min after exposure to ryanodine.
(§7) Left atria (n=7) were paced at 3 Hz, treated with 120 μM ouabain (Illanes and Marshall, 1964), and any change in mechanical function was recorded at a new steady state, ˜10 min later. These atria were exposed to 20 μM 2-APB and their mechanical function and rates of SMA were recorded 10 min later.
To test whether zatebradine affects left atrial force of contraction, two groups of left atria (n=9 per group) were paced at 3 Hz and treated with 300 nM BayK 8644. Five minutes later one group was incubated with six increasing concentrations of zatebradine (10-100 μM) for 3-5 min at each concentration, and forces of contraction were recorded. A second group was treated with BayK 8644 but not zatebradine, and forces of contraction were recorded at corresponding times.

rat left atria [3] = test: Spontaneous tachycardic activity (STA) in isolated rat left atria exposed to 2-APB under increased calcium load; conditions: for effect of If inhibitor on left atrial STA: BayK 8644 and 2-APB, zatebradine 70 μM, ZD-7288 titration to 100 μM
Protocol: (§8) Male Sprague-Dawley rats (325-400 g) were anesthetized with intra-peritoneal pentobarbital (0.1 g/kg). Their right and left atria were isolated, superfused at 30° C. in Krebs-Henseleit buffer, and nearly isometric forces of contraction were measured from these muscles (Wolkowicz et al., 2002). 2-APB was prepared as a 150 mM dimethyl sulfoxide stock.
as §4, §2
Left atrial contraction and relaxation times were recorded at these five times, the pacing stimulus was stopped and rates of SMA were recorded. To determine whether initial pacing rate affects left atrial response to 2-APB and isoproterenol, left atria (n=5-7 per group) were paced at 3 Hz and (i) remained untreated for 15 min, (ii) were treated with 20 μM 2-APB alone for 10 min, or (ii) were treated with 30 nM isoproterenol for 5 min followed by 20 μM 2-APB for 10 min. Atrial mechanical function was measured at these four times; the pacing stimulus then was stopped and rates of SMA were recorded.
as §5
Left atria (n=8 per group) were paced at 0.1 Hz, exposed to 300 nM BayK 8644 or FPL-64176 for 5 min followed by 20 μM 2-APB for 10 min. Atrial mechanical function was recorded at this time; the pacing stimulus then was stopped and rates of SMA were recorded.
as §6
Rates of SMA were measured 5 min later.
as §7
3 Hz-paced left atria (n=9 per group) were superfused (i) in Krebs-Henseleit alone or (ii) they were treated with 20 μM 2-APB for 10 min, (iii) with 300 nM BayK 8644 for 10 min and with 20 μM 2-APB for 10 min, or (iv) they were treated with 300 nM BayK 8644 and 20 μM 2-APB for 10 min, then with 70 μM zatebradine (3-[3-[[2-(3,4-Dimethoxyphenyl)ethyl]methylamino] propyl]-1,3,4,5-tetrahydro-7,8,-dimethoxy-2H-3-benzazepin-2-one hydrochloride) for 10 min (Baruscotti et al., 2005). Pacing was interrupted at these times and rates of SMA were recorded.

rat right atria = test: Right atrial spontaneous (pacemaker-driven) contraction frequency
Protocol: as §8
Left atria (n=9) were paced at 0.1 Hz, treated with 300 nM BayK 8644 for 5 min, then with 20 μM 2-APB for 10 min, and the pacing stimulus was stopped. These preparations then were incubated with six increasing concentrations of zatebradine (10-100 μM) for 3-5 min at each concentration, and rates of SMA were recorded. Untreated right atria (n=9) also were titrated with zatebradine and its effect on contraction frequency was recorded.
To test whether zatebradine affects the SMA occurring in the presence of 2-APB and isoproterenol, left atria (n=7) were paced at 0.1 Hz, treated with 30 nM isoproterenol for 5 min, then with 20 μM 2-APB for 10 min, and the pacing stimulus was stopped. Rates of SMA were recorded, these left atria were exposed to 70 μM zatebradine for 10 min, and rates of SMA were recorded again. A group of right atria (n=7) also were exposed to 30 nM isoproterenol for 5 min and then to 70 μM zatebradine for 10 min. Right atrial contraction frequency was recorded at these two times.
To test whether ZD-7288 (4-Ethylphenyl amino-1,2-dimethyl-6-methylaminopyridinium chloride), an If inhibitor structurally unrelated to zatebradine (Baruscotti et al., 2005; Sanders et al., 2006) affects the SMA occurring in the presence of 2-APB and BayK 8644, rat left atria (n=7) were treated with 300 nM BayK 8644 for 5 min, then with 20 μM 2-APB for 10 min, and the rates of SMA were recorded. These atria then were incubated with six increasing concentrations of ZD-7288 (10-100 μM) for 3-5 min at each concentration, and the rates of SMA were recorded. Right atria (n=7) were titrated similarly with ZD-7288 (0-100 μM) and the change in their contraction frequency was recorded.

| Structure (SMILES) | DIDS concentration that reversed SMA completely [1] | maximum forces of left atrial contraction, beginning vs end of 35-min superfusion (rat left atria [2]; 400 μM DIDS alone, no 2-APB) | effect of If inhibitor on left atrial STA (rat left atria [3]) | effect on right atrial contraction frequency (rat right atria; ZD-7288 titration 0-100 μM) | IC50 (rat left atria [3]; Rattus norvegicus, intact left atria exposed to BayK 8644 and 2-APB, read-out: IC50 for decrease of STA) | rate of appendage STA (rat left atria [3]; isoproterenol+2-APB+70 μM zatebradine) | left atrial force of contraction (rat left atria [2]; 3 Hz paced, 300 nM BayK 8644, titrated with 10-100 μM zatebradine) | IC50 (rat right atria; Rattus norvegicus, untreated right atria titrated with zatebradine, read-out: IC50 for decrease of right atrial contraction frequency) | right atrial contraction frequency (rat right atria; isoproterenol+70 μM zatebradine) | maximum decrease of right atrial contraction frequency (rat right atria; zatebradine titration) |
| --- | --- | --- | --- | --- | --- | --- | --- | --- | --- | --- |
| O=S(=O)(O)c1cc(N=C=S)ccc1C=Cc1ccc(N=C=S)cc1S(=O)(=O)O [DIDS, 4,4′-diisothiocyanatostilbene-2,2′-disulfonic acid] | > 300 µM | not different | – | – | – | – | – | – | – | – |
| CCN(c1ccccc1)c1cc(NC)[n+](C)c(C)n1.[Cl-] [ZD-7288] | – | – | decreases left atrial STA | decreases right atrial contraction frequency less robustly than zatebradine | – | – | – | – | – | – |
| COc1ccc(CCN(C)CCCN2CCc3cc(OC)c(OC)cc3CC2=O)cc1OC [zatebradine, 3-[3-[[2-(3,4-Dimethoxyphenyl)ethyl]methylamino]propyl]-1,3,4,5-tetrahydro-7,8,-dimethoxy-2H-3-benzazepin-2-one hydrochloride] | – | – | significantly decreases | – | 58 ± 5 µM | 110±24.5 contractions/min | 95±3.8 % of initial force | 12 ± 1.1 µM | 212±9.7 contractions/min | ~50% |
